Results reported in patent publication US9175011B2, “Morpholino substituted urea or carbamate derivatives as MTOR inhibitors” (CELLZOME LIMITED, priority 2011, dated 2015).

How the values were obtained:
PI3K gamma (PI3Kg) = biological target: T1, PI3K gamma (PI3Kg) (Homo sapiens, UniProt P48736); test: kinobeads assay, PI3K gamma; format: binding; conditions: Jurkat cell lysate, read-out: Inhibition values (IC50) PI3Kg
T1 construct: Jurkat cells were homogenized in a Potter S homogenizer in lysis buffer; endogenous in cells; host or cells: Jurkat, clone E6-1 (ATCC TIB-152) lysate
T1 sequence (P48736 whole entry): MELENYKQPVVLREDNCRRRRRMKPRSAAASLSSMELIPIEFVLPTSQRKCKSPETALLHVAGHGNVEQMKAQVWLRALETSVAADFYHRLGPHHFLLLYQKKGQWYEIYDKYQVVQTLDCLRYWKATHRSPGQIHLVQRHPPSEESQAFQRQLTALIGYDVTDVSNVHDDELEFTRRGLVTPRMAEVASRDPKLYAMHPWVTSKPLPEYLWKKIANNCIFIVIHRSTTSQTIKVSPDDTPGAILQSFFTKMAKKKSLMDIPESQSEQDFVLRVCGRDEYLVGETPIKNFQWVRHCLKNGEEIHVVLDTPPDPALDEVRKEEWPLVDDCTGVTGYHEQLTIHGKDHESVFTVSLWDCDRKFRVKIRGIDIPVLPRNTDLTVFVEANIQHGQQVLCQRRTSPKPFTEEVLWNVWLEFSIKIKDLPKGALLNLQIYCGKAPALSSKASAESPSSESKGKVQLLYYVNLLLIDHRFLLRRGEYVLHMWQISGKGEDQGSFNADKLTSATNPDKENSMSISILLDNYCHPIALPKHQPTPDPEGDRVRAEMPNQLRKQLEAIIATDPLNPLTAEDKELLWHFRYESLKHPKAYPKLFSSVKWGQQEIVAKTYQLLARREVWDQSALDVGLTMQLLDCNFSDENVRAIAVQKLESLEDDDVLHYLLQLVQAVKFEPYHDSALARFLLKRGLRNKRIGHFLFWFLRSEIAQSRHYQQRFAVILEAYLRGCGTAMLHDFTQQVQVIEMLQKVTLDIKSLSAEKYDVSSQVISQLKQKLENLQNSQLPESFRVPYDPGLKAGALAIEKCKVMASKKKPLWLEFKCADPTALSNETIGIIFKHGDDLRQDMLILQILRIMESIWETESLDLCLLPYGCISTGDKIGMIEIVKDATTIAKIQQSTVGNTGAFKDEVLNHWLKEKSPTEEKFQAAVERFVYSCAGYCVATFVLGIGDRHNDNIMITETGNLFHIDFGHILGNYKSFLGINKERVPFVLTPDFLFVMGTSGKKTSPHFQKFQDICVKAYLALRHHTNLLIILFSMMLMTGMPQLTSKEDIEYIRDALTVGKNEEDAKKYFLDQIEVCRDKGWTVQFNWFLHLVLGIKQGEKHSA
Description: (§1) The compounds of the present invention as described were tested in the mTOR kinobeads assay as described below. Briefly, test compounds (at various concentrations) and the affinity matrix (1:1 mixture of beads with immobilized phenylthiazole ligand 1 and beads with immobilized phenylmorpholin-chromen ligand; WO 2009/098021) were added to cell lysate aliquots and allowed to bind to the proteins in the lysate sample. After the incubation time the beads with captured proteins were separated from the lysate. Bound proteins were then eluted and the presence of mTOR, PI3K alpha (PI3Kα), PI3K beta (PI3Kb), PI3K gamma (PI3Kg), PI3K delta (PI3Kd) and DNA-dependent protein kinase (DNA-PK) was detected and quantified using a specific antibody in a dot blot procedure and the Odyssey infrared detection system. Dose response curves for individual kinases were generated and IC50 values calculated. Kinobeads assays for PI3 kinases (WO-A 2008/015013) and for kinase selectivity profiling (WO 2009/098021) have been previously described.
(§2) The affinity matrix (beads with immobilized phenylmorpholin-chromen ligand) was washed three times with 15 ml of 1×DP buffer containing 0.2% NP40 (IGEPAL® CA-630, Sigma, #13021) and then resuspended in 5.5 ml of 1×DP buffer containing 0.2% NP40 (10% beads slurry).
(§3) 5×DP buffer: 250 mM Tris-HCl pH 7.4, 25% Glycerol, 7.5 mM MgCl2, 750 mM NaCl, 5 mM Na3VO4, filter the 5×-lysis buffer through 0.22 μm filter and store in aliquots at −80° C. The 5×DP buffer is diluted to 1×DP buffer containing 1 mM DTT and 25 mM NaF.
(§4) Stock solutions of test compounds were prepared in DMSO. In a 96 well plate 30 μl solution of diluted test compounds at 5 mM in DMSO were prepared. Starting with this solution a 1:3 dilution series (9 steps) was prepared. For control experiments (no test compound) a buffer containing 2% DMSO was used. Compound PI-103 served as a positive control (Calbiochem catalogue number 528100).
(§5) Jurkat cells (ATCC catalogue number TIB-152 Jurkat, clone E6-1) were grown in 1 liter Spinner flasks (Integra Biosciences, #182101) in suspension in RPMI 1640 medium (Invitrogen, #21875-034) supplemented with 10% Fetal Bovine Serum (Invitrogen) at a density between 0.15×10^6 and 1.2×10^6 cells/ml. Cells were harvested by centrifugation, washed once with 1×PBS buffer (Invitrogen, #14190-094) and cell pellets were frozen in liquid nitrogen and subsequently stored at −80° C.
(§6) Jurkat cells were homogenized in a Potter S homogenizer in lysis buffer: 50 mM Tris-HCl, 0.8% NP40, 5% glycerol, 150 mM NaCl, 1.5 mM MgCl2, 25 mM NaF, 1 mM sodium vanadate, 1 mM DTT, pH 7.5. One complete EDTA-free tablet (protease inhibitor cocktail, Roche Diagnostics, 1873580) per 25 ml buffer was added. The material was dounced 10 times using a mechanized POTTER S, transferred to 50 ml falcon tubes, incubated for 30 minutes on ice and spun down for 10 min at 20,000 g at 4° C. (10,000 rpm in Sorvall SLA600, precooled). The supernatant was transferred to an ultracentrifuge (UZ)-polycarbonate tube (Beckmann, 355654) and spun for 1 hour at 100.000 g at 4° C. (33.500 rpm in Ti50.2, precooled). The supernatant was transferred again to a fresh 50 ml falcon tube, the protein concentration was determined by a Bradford assay (BioRad) and samples containing 50 mg of protein per aliquot were prepared. The samples were immediately used for experiments or frozen in liquid nitrogen and stored frozen at −80° C.
(§7) Jurkat cell lysate (approximately 50 mg protein per plate) was thawed in a water bath at room temperature and then kept on ice. To the thawed cell lysate 1×DP 0.8% NP40 buffer containing protease inhibitors (1 tablet for 25 ml buffer; EDTA-free protease inhibitor cocktail; Roche Diagnostics 1873580) was added in order to reach a final protein concentration of 5 mg/ml total protein. The diluted cell lysate was stored on ice. […]

[1] = biological target: T2, DNA-dependent protein kinase (DNA-PK) (Homo sapiens, UniProt P78527); test: kinobeads assay, DNA-PK; format: binding; conditions: Jurkat cell lysate, read-out: Inhibition values (IC50) DNA-PK
T2 construct: Jurkat cells were homogenized in a Potter S homogenizer in lysis buffer; endogenous in cells; host or cells: Jurkat, clone E6-1 (ATCC TIB-152) lysate
Description: as §1, §2, §3, §4, §5, §6, §7

[2] = test system: S6RP serine-240/244 phosphorylation; test: In vitro phospho-S6 cellular assay (HEK293T/17); format: cell-based; conditions: Homo sapiens; HEK293T/17 cells, 2 hours, pS6RP Ser240/244; read-out: Inhibition values (IC50) pS6
Excerpt: Activation of mTOR signaling results in phosphorylation of several downstream targets. In cells, mTOR exists in two different protein complexes. The mTOR Complex-1 (mTORC1) phosphorylates and activates S6 Kinase 1 (S6K1) and S6 Kinase 2 (S6K2) (also known as p70S6K) which then phosphorylate S6 Ribosomal Protein (S6RP) (also known as RPS6)3. S6RP is phosphorylated on serine 235, senile 236, serine 240 and serine 244 by both pS6K1 and pS6K2. The mTOR Complex-2 (mTORC2) phosphorylates AKT on serine 473 which activates the AKT signaling pathway.
The assay measures a test compound's inhibition of S6RP serine-240/244 phosphorylation and inhibition of Akt serine-473 phosphorylation in human embryonic kidney derived HEK293T/17 cells (ATCC CRL-11268).
The HEK293T/17 cell line is maintained in DMEM media (Invitrogen catalogue number 41965-039) supplemented with 10% FCS at 37° C. in a 5% CO2 humidified incubator. Cells are seeded in 96-well plates at 40,000 cells/well (pS6RP S240/244 assay) or 80,000 cells/well (pAkt 5473 assay) in 90 μl growth media (DMEM, 2% FCS). Plates are incubated for 1 hour in a humidified incubator to allow the cells to adhere. Cells are treated with 8 concentrations of test compounds or DMSO alone for controls (final DMSO concentration 0.1%) and incubated at 37° C. for 2 hours. Then 20 μl of 5× concentrated lysis buffer (750 mM NaCl, 100 mM Tris pH7.4, 5 mM ADTA, 5 mM EGTA, 5% Triton X-100) is added, plates are sealed and incubated for 15 minutes at 4° C. with gentle shaking After cell lysis, 25 μl cell lysate is transferred to a MesoScale plate coated with an antibody to pS6RP Ser240/244 (MesoScale Discovery K150DGD-3) or an antibody to pAkt Ser 473 (MesoScale Discovery K151DGD-3). Plates have been blocked before by incubation with 150 μl MesoScale Discovery Blocking Solution-A for 1 hour at room temperature followed by washing with 150 μl 1×Tris wash buffer per well. After the transfer of the cell lysate to the MSD plate, the pS6RP (or pAkt) protein is captured on the coated antibody by incubation at room temperature for 1 hour with gentle shaking. After the capture step the plate is washed three times with 150 μl of 1× Tris wash buffer per well. Then 25 μl detection antibody conjugated with a Sulfo-Tag is added and incubated for 1 hour at room temperature with gentle shaking. Subsequently the antibody solution is removed and the plate is washed 3 times with 150 μl 1×Tris wash buffer per well and 150 μl Read buffer is added. The plates are analysed on a MSD 2400 Plate Reader (MesoScale Discovery). Data analysis is performed using nonlinear regression for a sigmoidal dose-response with a variable slope.

PI3K delta (PI3Kd) = biological target: T3, PI3K delta (PI3Kd) (Homo sapiens, UniProt O00329); test: kinobeads assay, PI3K delta; format: binding; conditions: Jurkat cell lysate, read-out: Inhibition values (IC50) PI3Kd
T3 construct: Jurkat cells were homogenized in a Potter S homogenizer in lysis buffer; endogenous in cells; host or cells: Jurkat, clone E6-1 (ATCC TIB-152) lysate
T3 sequence (O00329 whole entry): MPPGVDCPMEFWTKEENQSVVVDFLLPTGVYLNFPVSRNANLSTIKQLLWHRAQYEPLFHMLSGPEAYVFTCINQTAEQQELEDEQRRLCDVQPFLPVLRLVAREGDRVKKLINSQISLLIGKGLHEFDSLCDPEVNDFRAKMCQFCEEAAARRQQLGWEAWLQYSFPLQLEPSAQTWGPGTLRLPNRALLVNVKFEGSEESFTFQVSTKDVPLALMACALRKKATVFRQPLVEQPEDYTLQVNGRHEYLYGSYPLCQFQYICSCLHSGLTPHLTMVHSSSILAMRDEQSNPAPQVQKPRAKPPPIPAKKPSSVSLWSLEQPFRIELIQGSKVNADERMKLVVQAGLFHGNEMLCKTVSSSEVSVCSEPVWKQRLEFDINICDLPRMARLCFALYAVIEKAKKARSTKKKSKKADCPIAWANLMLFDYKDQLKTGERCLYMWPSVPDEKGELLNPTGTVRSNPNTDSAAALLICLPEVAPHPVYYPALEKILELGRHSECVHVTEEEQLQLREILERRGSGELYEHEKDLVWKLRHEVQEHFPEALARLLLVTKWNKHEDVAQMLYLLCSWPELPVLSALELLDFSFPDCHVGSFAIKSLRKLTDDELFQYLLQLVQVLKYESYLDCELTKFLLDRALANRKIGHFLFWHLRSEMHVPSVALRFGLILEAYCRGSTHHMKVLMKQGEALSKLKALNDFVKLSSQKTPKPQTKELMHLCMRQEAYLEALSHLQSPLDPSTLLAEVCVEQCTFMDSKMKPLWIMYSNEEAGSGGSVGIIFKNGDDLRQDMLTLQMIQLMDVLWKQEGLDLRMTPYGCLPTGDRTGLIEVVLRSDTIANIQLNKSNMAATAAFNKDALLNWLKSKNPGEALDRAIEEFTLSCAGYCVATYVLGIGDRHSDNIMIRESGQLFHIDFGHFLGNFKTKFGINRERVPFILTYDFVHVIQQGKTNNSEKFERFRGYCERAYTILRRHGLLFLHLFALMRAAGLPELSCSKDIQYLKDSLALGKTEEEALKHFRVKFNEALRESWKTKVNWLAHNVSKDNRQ
T3 sequence (P27986 whole entry partner): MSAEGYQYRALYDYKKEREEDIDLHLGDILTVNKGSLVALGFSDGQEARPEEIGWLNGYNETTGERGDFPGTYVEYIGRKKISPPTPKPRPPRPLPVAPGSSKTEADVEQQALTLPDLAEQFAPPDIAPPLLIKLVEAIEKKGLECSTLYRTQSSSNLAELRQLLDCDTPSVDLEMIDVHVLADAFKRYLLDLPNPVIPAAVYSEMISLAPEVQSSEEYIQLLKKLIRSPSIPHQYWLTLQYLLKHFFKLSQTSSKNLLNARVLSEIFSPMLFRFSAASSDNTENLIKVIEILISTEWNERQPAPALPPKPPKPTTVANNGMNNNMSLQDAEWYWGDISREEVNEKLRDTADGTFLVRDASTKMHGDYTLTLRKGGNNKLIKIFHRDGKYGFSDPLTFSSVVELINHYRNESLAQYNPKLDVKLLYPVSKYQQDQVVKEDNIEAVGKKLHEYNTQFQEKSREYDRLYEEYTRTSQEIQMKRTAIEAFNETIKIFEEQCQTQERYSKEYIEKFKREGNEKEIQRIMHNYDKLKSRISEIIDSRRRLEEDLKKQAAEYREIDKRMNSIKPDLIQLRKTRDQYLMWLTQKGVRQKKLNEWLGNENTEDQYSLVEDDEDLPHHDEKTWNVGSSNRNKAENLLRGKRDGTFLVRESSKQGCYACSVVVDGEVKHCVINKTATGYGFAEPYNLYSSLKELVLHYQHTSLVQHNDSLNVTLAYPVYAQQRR
Description: as §1, §2, §3, §4, §5, §6, §7

PI3K beta (PI3Kb) = biological target: T4, PI3K beta (PI3Kb) (Homo sapiens, UniProt P42338); test: kinobeads assay, PI3K beta; format: binding; conditions: Jurkat cell lysate, read-out: Inhibition values (IC50) PI3Kb
T4 construct: Jurkat cells were homogenized in a Potter S homogenizer in lysis buffer; endogenous in cells; host or cells: Jurkat, clone E6-1 (ATCC TIB-152) lysate
T4 sequence (P42338 whole entry): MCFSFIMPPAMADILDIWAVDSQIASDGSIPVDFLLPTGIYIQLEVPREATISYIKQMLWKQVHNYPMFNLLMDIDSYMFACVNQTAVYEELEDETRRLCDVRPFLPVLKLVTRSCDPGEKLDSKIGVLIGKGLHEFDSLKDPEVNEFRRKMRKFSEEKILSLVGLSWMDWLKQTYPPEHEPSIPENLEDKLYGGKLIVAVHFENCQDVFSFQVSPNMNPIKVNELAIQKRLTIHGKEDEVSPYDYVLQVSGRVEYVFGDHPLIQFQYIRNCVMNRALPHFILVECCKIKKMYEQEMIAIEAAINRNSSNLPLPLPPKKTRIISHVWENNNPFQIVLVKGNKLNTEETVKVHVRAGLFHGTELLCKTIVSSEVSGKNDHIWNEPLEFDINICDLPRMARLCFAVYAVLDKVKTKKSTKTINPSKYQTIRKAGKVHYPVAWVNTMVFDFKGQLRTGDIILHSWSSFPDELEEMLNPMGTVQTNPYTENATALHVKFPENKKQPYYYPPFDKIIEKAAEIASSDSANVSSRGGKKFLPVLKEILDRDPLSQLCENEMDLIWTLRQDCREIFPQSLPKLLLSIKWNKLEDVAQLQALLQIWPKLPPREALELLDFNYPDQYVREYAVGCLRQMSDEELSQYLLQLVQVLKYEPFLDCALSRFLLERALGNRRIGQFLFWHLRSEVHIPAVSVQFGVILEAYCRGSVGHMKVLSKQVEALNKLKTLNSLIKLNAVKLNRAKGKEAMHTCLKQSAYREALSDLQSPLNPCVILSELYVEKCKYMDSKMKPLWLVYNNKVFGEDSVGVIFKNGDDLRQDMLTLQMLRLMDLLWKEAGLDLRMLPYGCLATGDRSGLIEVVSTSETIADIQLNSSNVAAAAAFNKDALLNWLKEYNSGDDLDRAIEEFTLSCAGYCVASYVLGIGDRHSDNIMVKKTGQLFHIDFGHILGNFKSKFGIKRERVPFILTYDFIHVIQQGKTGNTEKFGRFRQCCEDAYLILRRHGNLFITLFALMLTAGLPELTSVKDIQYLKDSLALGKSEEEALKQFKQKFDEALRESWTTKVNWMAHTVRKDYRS
T4 sequence (P27986 whole entry partner): as the sequence (P27986 whole entry partner) above
Description: as §1, §2, §3, §4, §5, §6, §7

PI3K alpha (PI3Kα) = biological target: T5, PI3K alpha (PI3Kα) (Homo sapiens, UniProt P42336); test: kinobeads assay, PI3K alpha; format: binding; conditions: Jurkat cell lysate, read-out: Inhibition values (IC50) PI3Ka
T5 construct: Jurkat cells were homogenized in a Potter S homogenizer in lysis buffer; endogenous in cells; host or cells: Jurkat, clone E6-1 (ATCC TIB-152) lysate
T5 sequence (P42336 whole entry): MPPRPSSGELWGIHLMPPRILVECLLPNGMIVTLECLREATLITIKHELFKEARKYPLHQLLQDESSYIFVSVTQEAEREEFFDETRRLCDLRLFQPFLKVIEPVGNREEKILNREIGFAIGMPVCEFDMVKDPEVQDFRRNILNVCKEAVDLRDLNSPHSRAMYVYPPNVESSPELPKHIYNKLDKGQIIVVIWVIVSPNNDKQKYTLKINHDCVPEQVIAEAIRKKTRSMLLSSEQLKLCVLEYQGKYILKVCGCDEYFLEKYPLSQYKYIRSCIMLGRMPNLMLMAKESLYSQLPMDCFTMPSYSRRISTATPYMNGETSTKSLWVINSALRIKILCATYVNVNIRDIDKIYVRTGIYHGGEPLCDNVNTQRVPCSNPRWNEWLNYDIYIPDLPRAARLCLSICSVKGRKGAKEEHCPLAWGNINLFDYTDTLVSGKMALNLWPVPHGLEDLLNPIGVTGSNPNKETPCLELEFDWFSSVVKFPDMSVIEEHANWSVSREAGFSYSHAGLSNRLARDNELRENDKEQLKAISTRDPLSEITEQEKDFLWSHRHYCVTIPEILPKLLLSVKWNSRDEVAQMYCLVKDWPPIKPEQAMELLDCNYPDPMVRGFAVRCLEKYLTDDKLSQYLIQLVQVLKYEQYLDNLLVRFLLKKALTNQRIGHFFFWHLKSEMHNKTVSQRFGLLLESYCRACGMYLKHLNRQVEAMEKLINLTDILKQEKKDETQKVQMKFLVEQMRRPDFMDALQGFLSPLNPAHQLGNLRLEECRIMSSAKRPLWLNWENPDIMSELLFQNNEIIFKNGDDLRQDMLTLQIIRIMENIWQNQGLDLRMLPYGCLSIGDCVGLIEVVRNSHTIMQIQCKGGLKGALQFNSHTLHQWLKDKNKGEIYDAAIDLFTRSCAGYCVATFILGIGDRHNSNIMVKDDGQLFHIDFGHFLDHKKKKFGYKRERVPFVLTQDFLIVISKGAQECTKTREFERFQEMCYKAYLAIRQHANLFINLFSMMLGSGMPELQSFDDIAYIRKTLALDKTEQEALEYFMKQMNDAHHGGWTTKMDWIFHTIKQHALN
T5 sequence (P27986 whole entry partner): as the sequence (P27986 whole entry partner) above
Description: as §1, §2, §3, §4, §5, §6, §7

mTOR = biological target: T6, mTOR (Homo sapiens, UniProt P42345); test: mTOR kinobeads assay (Jurkat cell lysate, dot blot detection); format: binding; conditions: read-out: Inhibition values (IC50) mTor
T6 construct: Jurkat cells were homogenized in a Potter S homogenizer in lysis buffer; endogenous in cells; host or cells: Jurkat, clone E6-1 (ATCC TIB-152) lysate
Description: as §1, §2, §3, §4, §5, §6, §7

Compound | IC50 (PI3K gamma (PI3Kg)) | IC50 [1] | IC50 [2] | IC50 (PI3K delta (PI3Kd)) | IC50 (PI3K beta (PI3Kb)) | IC50 (PI3K alpha (PI3Kα)) | IC50 (mTOR)
C[C@H]1COCCN1c1nc(-c2ccc(NC(=O)Nc3cccnc3)cc2)nc(-c2ccccc2S(C)(=O)=O)n1 [Example 3, (S)-1-(4-(4-(3-methylmorpholino)-6-(2-(methylsulfonyl)phenyl)-1,3,5-triazin-2-yl)phenyl)-3-(pyridin-3-yl)urea] | > 10 µM | > 10 µM | < 0.1 µM | > 10 µM | > 10 µM | > 10 µM | 0.1 to 1 µM
C[C@H]1COCCN1c1nc(-c2ccc(NC(=O)NC3COC3)cc2)nc(-c2ccccc2S(C)(=O)=O)n1 [Example 9, (S)-1-(4-(4-(3-methylmorpholin)-6-(2-(methylsulfonyl)phenyl)-1,3,5-triazin-2-yl)phenyl)-3-(oxetan-3-yl)urea] | > 10 µM | > 10 µM | 0.1 to 1 µM | > 10 µM | > 10 µM | > 10 µM | 0.1 to 1 µM
CC(C)NC(=O)Nc1ccc(-c2nc(-c3ccccc3S(C)(=O)=O)nc(N3CCOC[C@@H]3C)n2)cc1 [Example 15, (S)-1-isopropyl-3-(4-(4-(3-methylmorpholino)-6-(2-(methylsulfonyl)phenyl)-1,3,5-triazin-2-yl)phenyl)urea] | > 10 µM | > 10 µM | < 0.1 µM | > 10 µM | > 10 µM | > 10 µM | 0.1 to 1 µM
CS(=O)(=O)c1ccccc1-c1nc(-c2ccc(NC(=O)NC3CC3)cc2)nc(N2C3CCC2COC3)n1 [Example 16, 1-(4-(4-(3-oxa-8-azabicyclo[3.2.1]octan-8-yl)-6-(2-(methylsulfonyl)phenyl)-1,3,5-triazin-2-yl)phenyl)-3-cyclopropylurea] | > 10 µM | > 10 µM | < 0.1 µM | > 10 µM | > 10 µM | > 10 µM | 0.1 to 1 µM
C[C@H]1COCCN1c1nc(-c2ccc(NC(=O)NCCC(F)(F)F)cc2)nc(-c2ccccc2S(C)(=O)=O)n1 [Example 31, (S)-1-(4-(4-(3-methylmorpholino)-6-(2-(methylsulfonyl)phenyl)-1,3,5-triazin-2-yl)phenyl)-3-(3,3,3-trifluoropropyl)urea] | > 10 µM | > 10 µM |  | > 10 µM | > 10 µM | > 10 µM | 1 to 10 µM
C[C@H]1COCCN1c1nc(-c2ccc(NC(=O)NCCC(O)C(F)(F)F)cc2)nc(-c2ccccc2S(C)(=O)=O)n1 (stereo partly drawn) [Example 38, 1-(4-(4-((S)-3-methylmorpholino)-6-(2-(methylsulfonyl)phenyl)-1,3,5-triazin-2-yl)phenyl)-3-(4,4,4-trifluoro-3-hydroxybutyl)urea] | > 10 µM | > 10 µM |  | > 10 µM | > 10 µM | > 10 µM | > 10 µM

Second part, the compound after the results:

IC50 (PI3K gamma (PI3Kg)) | IC50 [1] | IC50 [2] | IC50 (PI3K delta (PI3Kd)) | IC50 (PI3K beta (PI3Kb)) | IC50 (PI3K alpha (PI3Kα)) | IC50 (mTOR) | Compound
> 10 µM | > 10 µM | < 0.1 µM | > 10 µM | > 10 µM | > 10 µM | < 0.1 µM | CS(=O)(=O)c1ccccc1-c1nc(-c2ccc(NC(=O)NC3CC3)cc2)nc(N2CC3CCC(C2)O3)n1 [Example 11, 1-(4-(4-(8-oxa-3-azabicyclo[3.2.1]octan-3-yl)-6-(2-(methylsulfonyl)phenyl)-1,3,5-triazin-2-yl)phenyl)-3-cyclopropylurea]
> 10 µM | > 10 µM | 0.1 to 1 µM | > 10 µM | > 10 µM | > 10 µM | 0.1 to 1 µM | CS(=O)(=O)c1ccccc1-c1nc(-c2ccc(NC(=O)NC3CC3)cc2)nc(N2CCOCC2)n1 [Example 12, 1-cyclopropyl-3-(4-(4-(2-(methylsulfonyl)phenyl)-6-morpholino-1,3,5-triazin-2-yl)phenyl)urea]
> 10 µM | > 10 µM | < 0.1 µM | > 10 µM | > 10 µM | > 10 µM | 0.1 to 1 µM | C[C@@H]1COCCN1c1nc(-c2ccc(NC(=O)NC3CC3)cc2)nc(-c2ccccc2S(C)(=O)=O)n1 [Example 13, (R)-1-cyclopropyl-3-(4-(4-(3-methylmorpholino)-6-(2-(methylsulfonyl)phenyl)-1,3,5-triazin-2-yl)phenyl)urea]
> 10 µM | > 10 µM | < 0.1 µM | > 10 µM | > 10 µM | > 10 µM | 0.1 to 1 µM | CCS(=O)(=O)c1ccccc1-c1nc(-c2ccc(NC(=O)NC3CC3)cc2)nc(N2CCOC[C@@H]2C)n1 [Example 17, (S)-1-cyclopropyl-3-(4-(4-(2-(ethylsulfonyl)phenyl)-6-(3-methylmorpholino)-1,3,5-triazin-2-yl)phenyl)urea]
